This note sets out measurements from US20250304700A1, “ANTI-BLOOD DENDRITIC CELL ANTIGEN 2 ANTIBODIES AND USES THEREOF” (Biogen MA Inc., priority 2012, published 2025).

For one test, the system named is BDCA2 bearing CHO cells. Kind of test: ADCC assay with NK cells. In kind it is cell-based. Conditions: NK:CHO 5:1, 4 hours. On the procedure: The CHO cell line (EAG2456 T1F2 Clone 34.16.7) was used as the target cell. Expression level of BDCA2 on the surface of CHO cells was determined by FACS using an APC-labeled anti-BDCA2 mAb (clone AC144, Miltenyi). NK cells were used as the effector cells and were separated from whole blood by negative selection using the RosetteSep™ Human NK Cell Enrichment Cocktail (Stem Cells Technologies). After a 20 minute incubation with the cocktail at room temperature, NK cells were isolated by discontinuous gradient centrifugation over ficoll. […] The negative control consisted of wells containing CHO and NK cells without antibodies. NK and CHO cells lysed with Tx-100 were used to determine maximal killing. ADCC was evaluated using the Vybrant Cytotoxicity Assay kit (Invitrogen), following the manufacturer's instructions. The assay detects G6PD from damaged cells based on the G6PD-dependent reduction of resazurin which emits fluorescence at 590 nm after excitation at 530 nm. The ADCC assay depicted in FIG. 22 panel A was performed using high BDCA2 expressing CHO cells (panel C) while the ADCC assay in FIG. 22 panel B used CHO cells with lower BDCA2 expression (panel D).

In test [1] the test system is CHO-BDCA2/FcεRIγ stable transfectant cells. Kind of test: CDC assay with rabbit serum complement. The test is classed as cell-based. Conditions: 1 h at 37° C. On the procedure:
CHO− BDCA2/FcεRIγ stable transfectant cells (EAG2456 T1F2 Clone 34.16.7) were seeded at 5×10^4 cells in 96 well Collagen black well plates and incubated at 37° C. for 48 hrs. […] Negative control consisted of wells containing CHO cells, rabbit serum complement, and PI, without antibodies. NK and CHO cells lysed with T-100×were used to determine maximal killing. The plates were read using Cytoflour Fluorescence plate reader (ex530/em645).

Test [2] relates to cell surface BDCA2 on pDCs. Kind of test: BIIB059 titration in cynomolgus whole blood, anti-human IgG PE detection. The test is classed as binding, cynomolgus monkey. Conditions: all cynomolgus monkeys. As to the method: The maximal values were taken from the values at the plateau in each assay (FIGS. 24 and 25).
Whole blood was drawn from twelve cynomolgus monkeys, once a week for three weeks total. […] MFI of PE was calculated with FlowJo software, and EC50 curves were generated in GraphPad Prism software.

The subject of test [3] is BDCA2 on cynomolgus plasmacytoid dendritic cells. Kind of test: Flow cytometric whole blood assay, BIIB059 binding to cynomolgus pDCs. Details: species or system cynomolgus monkey. The following applies: Alexa647 labeled BIIB059, on ice. On the procedure:
Cynomolgus monkey (Toxikon, Inc, Bedford, MA) or human peripheral blood (Biogen Idec) were collected in sodium heparin collection tubes and maintained at room temperature. A FACS staining antibody cocktail for identifying pDCs was added to each whole blood aliquot, incorporating CD20, CD14, CD123 and HLA-DR antibodies. […] Blood was incubated on ice, protected from light, for 30 min. After 30 min., each 500 μL aliquot of whole blood (cyno) or 100 μL (human) was treated with 10 mL (cyno) or 2 mL (human) of 1× Easy Lyse Buffer (Leinco Technologies) that had been incubated at 37° C. for at least one hour. After a 10-15 min. incubation at room temperature, samples were centrifuged at 1400 rpm for 5 min. The supernatant was decanted, leaving only a pellet of white blood cells (WBC). Each WBC pellet was washed with 5 mL of FACS buffer (1% BSA+0.002% NaAzide+1 mM CaCl2)+1 mM MgCl2 in PBS), and centrifuged at 1400 rpm for 5 min. The supernatant was decanted, and each WBC pellet was resuspended in 200 μL of FACS buffer and transferred to a 96-well round bottom plate (Fisher Scientific). The plate was centrifuged at 1400 rpm for 5 min. The supernatant was dumped out of the plate, and each WBC pellet was washed with 200 μL of FACS buffer. […] Each WBC pellet was resuspended in 250 μL of FACS buffer and fluorescence intensity measured on a LSRII 4-color FACS machine. […]
Background: In flow cytometry, cells or beads pass a laser one at a time.

Chain of BDCA2 on cynomolgus plasmacytoid dendritic cells (as listed by the source): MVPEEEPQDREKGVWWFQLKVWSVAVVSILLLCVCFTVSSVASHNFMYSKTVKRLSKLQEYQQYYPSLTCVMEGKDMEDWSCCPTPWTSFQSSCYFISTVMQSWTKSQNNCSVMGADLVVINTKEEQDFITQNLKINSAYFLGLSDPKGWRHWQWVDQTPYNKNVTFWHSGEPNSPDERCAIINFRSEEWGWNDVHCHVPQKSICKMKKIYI
Chain of cell surface BDCA2 on pDCs (as listed by the source): as above

Consider “24F4S: hu24F4 H4/L1 with C95S light chain; differs from BIIB059 by 1 amino acid residue”, for which the “killing of BDCA2 bearing CHO cells” value with BDCA2 bearing CHO cells amounted to 100%. Also, the “CDC activity, in words” value in test [1] is listed as “cell killing by CDC similar to Triton lysis”.
For the substance “BIIB059: humanized IgG1 anti-BDCA2 antibody, mature heavy chain SEQ ID NO: 4 and mature light chain SEQ ID NO: 3”, the “ADCC activity, in words” value with BDCA2 bearing CHO cells is reported as “identical ADCC activity”. Moreover, the “CDC activity, in words” value in test [1] was “cell killing by CDC similar to Triton lysis”. For the same substance, the “concentration that saturates BDCA2 receptor binding” value in test [2] was found to be 10 µg/mL. Also, the “EC50 of binding to pDCs” value in test [3] is given as 1-2 μg/mL.
